Measurements taken from patent US20050209195A1, “Indolinone derivatives” (Cell Therapeutics Europe S.r.I, priority 2004, published 2005).
Where two headings read alike, the source gives them in different places.

Assays:
[1] = target: T1, Human cKit Tyrosine Kinase Receptor (human cKit RTK-catalytic domain) (Homo sapiens, UniProt P10721); assay: DELFIA cKit Tyrosine Kinase Assay (cell-free); format: biochemical
T1 construct: human cKit RTK-catalytic domain; purchased Panvera-Invitrogen P3080
Protocol: The compounds of the invention were tested with a dedicated cell-free kinase assay for the evaluation of the inhibiting activity on tyrosine kinases.
In more detail, the assay was a DELFIA™ (Dissociation Enhanced Time-Resolved Fluorometric Assay) Tyrosine Kinase Assay™ (PerkinElmer), a highly sensitive, reproducible ELISA assay that allows to evaluate the activity of a tyrosine kinase.
Human cKit Tyrosine Kinase Receptor (human cKit RTK-catalytic domain), commercially available from Panvera-Invitrogen (Cat. N^o. P3080), was used as the tyrosine kinase.
After 1 hour incubation at room temperature and three washings with 1×DELFIA Wash Buffer (PerkinElmer), the phosphotyrosine residues of the acceptor were detected with an europium-labelled anti-phosphotyrosine monoclonal antibody (DELFIA Eu-N1 labelled anti-phosphotyrosine antibody PT66, PerkinElmer) and, after a further hour incubation at room temperature and three washings with 1×DELFIA Wash Buffer, overall phosphorylation of biotinylated polyGAT was determined by addition of Enhancement Solution (PerkinElmer) and fluorimetric analysis of the plates (α-Fusion FP HT, PerkinElmer) in the “Time-Resolved Fluorescence” mode.

[2] = target: T2, human Ret TKR-catalytic domain (Homo sapiens, UniProt P07949); assay: DELFIA Ret Kinase Assay (cell-free); format: biochemical
T2 construct: human Ret TKR-catalytic domain; purchased ProQinase
T2 sequence (P07949 724-1016 limits assumed): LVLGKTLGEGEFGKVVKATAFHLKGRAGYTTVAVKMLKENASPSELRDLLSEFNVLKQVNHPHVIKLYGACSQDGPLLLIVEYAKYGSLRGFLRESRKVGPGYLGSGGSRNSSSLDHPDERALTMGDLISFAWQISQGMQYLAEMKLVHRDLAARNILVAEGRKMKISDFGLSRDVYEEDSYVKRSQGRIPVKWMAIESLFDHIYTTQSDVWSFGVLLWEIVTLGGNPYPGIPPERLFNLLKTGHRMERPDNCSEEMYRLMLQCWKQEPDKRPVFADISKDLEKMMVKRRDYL
Protocol: In order to evidence and quantify inhibitory activity on Ret tyrosine kinase, the most representative compounds of the invention were tested with a dedicated DELFIA kinase assay, using a human tyrosine-kinase receptor (Ret TKR) recombinant form (human Ret TKR-catalytic domain) available from ProQinase as the tyrosine kinase.
After 10 min. incubation at 30° C., the kinase reactions were worked up as in the DELFIA cKit Kinase Assay.

[3] = test system: NIH3T3^MEN2A(C634R) cells; assay: Survival curves by Coulter Counter cell count, 72 h; format: cell-based, murine; conditions: Mus musculus, NIH3T3MEN2A, 72 h treatment, read-out: Cont at 72 h IC50
Protocol: (§1) NIH3T3 Murine fibroblasts and the transfected line NIH3T3^MEN2A(C634R) were treated with increasing concentrations of the compounds of the invention for 72 h. Survival curves were obtained by Coulter Counter cell count. IC50s calculated from said curves are reported in Table 9: the higher sensitivity of the oncoprotein-expressing cell line is evident. The reversal of the morphologically transformed phenotype of NIH3T3^MEN2A (C634R) cells in the presence of the compounds of the invention was evaluated by contrast phase microscopy after 24 h treatment and photographically documented.

[4] = test system: NIH3T3^MEN2A(C634R) cells; assay: Reversal of morphologically transformed phenotype, contrast phase microscopy, 24 h; format: cell-based, murine; conditions: 24 h treatment; for minimal effective concentration: Mus musculus, NIH3T3MEN2A, read-out: Morphology a 24 h: concentration from which reversal was observed
Protocol: as §1

[5] = cell-free DELFIA, 25 ng cKit TKR, 150 μM ATP, 20 minutes at 30° C., read-out: IC50
[6] = cell-free DELFIA, 50 ng Ret TKR, 3 μM ATP, 10 min. at 30° C., read-out: IC50

T1 sequence (P10721 589-937 limits assumed): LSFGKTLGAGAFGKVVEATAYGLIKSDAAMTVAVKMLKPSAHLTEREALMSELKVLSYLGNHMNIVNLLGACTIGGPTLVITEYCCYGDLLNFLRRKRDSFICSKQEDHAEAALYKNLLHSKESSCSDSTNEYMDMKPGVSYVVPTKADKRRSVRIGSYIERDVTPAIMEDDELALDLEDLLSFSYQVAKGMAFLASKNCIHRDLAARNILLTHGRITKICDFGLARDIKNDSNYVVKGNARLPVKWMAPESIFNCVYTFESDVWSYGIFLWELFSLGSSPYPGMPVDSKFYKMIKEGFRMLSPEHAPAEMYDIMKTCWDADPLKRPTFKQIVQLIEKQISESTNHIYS

Row | melting point | SMILES | IC50 [1, 5] | IC50 [2, 6] | further results
1 | 238 to 240 °C | COc1cc2c(cc1OC)/C(=C\c1ccc(OC(=O)NC(C)(C)C)cc1)C(=O)N2 |  |  | 
2 | 183 to 185 °C | COc1cc2c(cc1OC)/C(=C\c1ccc(OC(=O)N(CCO)CCO)cc1)C(=O)N2 |  |  | 
3 | 255 to 257 °C | COc1cc2c(cc1OC)/C(=C\c1ccc(OC(=O)N3CCOCC3)cc1)C(=O)N2 [B.2, Morpholine-4-carboxylic Acid, (E)-4-(5,6-dimethoxy-2-oxo-1,2-dihydro-indol-3-ylidenemethyl)phenyl Ester] |  |  | 
4 | 189 to 191 °C | COc1cc2c(cc1OC)/C(=C\c1ccc(OC(C)=O)cc1)C(=O)N2 [E.2, Acetic Acid, (E)-4-(5,6-dimethoxy-2-oxo-1,2-dihydro-indol-3-ylidenemethyl)phenyl Ester] |  |  | IC50 [3]: 1.5 ± 0.05 µM; Morphology a 24 h [4]: REVERSAL; minimal effective concentration [4]: ≥ 5 µM
5 | 227 to 229 °C | COc1cc2c(cc1OC)/C(=C\c1ccc(OC(=O)c3cccnc3)cc1)C(=O)N2 [E.3, Nicotinic Acid, (E)-4-(5,6-dimethoxy-2-oxo-1,2-dihydro-indol-3-ylidenemethyl)phenyl Ester] |  |  | 
6 | 228 to 230 °C | COc1cc2c(cc1OC)/C(=C\c1ccc(OC(=O)c3ccccc3)cc1)C(=O)N2 [Example E.1, Benzoic Acid, (E)-4-(5,6-dimethoxy-2-oxo-1,2-dihydro-indol-3-ylidenemethyl)phenyl Ester] |  |  | 
7 | 138 to 140 °C | CCCCCCCCCC(=O)Oc1ccc(/C=C2/C(=O)Nc3cc(OC)c(OC)cc32)cc1 [Example F.1, n-decanoic Acid, (E)-4-(5,6-dimethoxy-2-oxo-1,2-dihydro-indol-3-ylidenemethyl)phenyl Ester] |  |  | 
8 | 165 to 167 °C | COc1cc2c(cc1OC)/C(=C\c1ccc(OC(=O)c3cccn3C)cc1)C(=O)N2 [Example F.4, 1-Methyl-1H-pyrrole-2-carboxylic Acid, (E)-4-(5,6-dimethoxy-2-oxo-1,2-dihydro-indol-3-ylidenemethyl)phenyl Ester] |  |  | 
9 | 95 to 97 °C | CCCCCCCCCC(=O)Oc1ccc(/C=C2\C(=O)Nc3cc(OC)c(OC)cc32)cc1 [Example G.1, n-decanoic Acid, (Z)-4-(5,6-dimethoxy-2-oxo-1,2-dihydro-indol-3-ylidenemethyl)phenyl Ester] |  |  | 
10 | 117 to 119 °C | COCCOCCOCC(=O)Oc1ccc(/C=C2/C(=O)Nc3cc(OC)c(OC)cc32)cc1 [F.3, [2-(2-Methoxy-ethoxy)-ethoxy]acetic Acid, (E)-4-(5,6-dimethoxy-2-oxo-1,2-dihydro-indol-3-ylidenemethyl)phenyl Ester] | 5.08 µM | 3.79 µM | 
11 | > 250 °C | COc1cc2c(cc1OC)/C(=C\c1ccc(OC(=O)c3cnccn3)cc1)C(=O)N2 [F.5, Pyrazine-2-carboxylic Acid, (E)-4-(5,6-dimethoxy-2-oxo-1,2-dihydro-indol-3-ylidenemethyl)phenyl Ester] |  |  | 

Further lines, the compound ahead of its results:

Row | SMILES | melting point | IC50 [1, 5] | IC50 [2, 6] | further results
12 | COc1ccc(NC(=O)Oc2ccc(/C=C3/C(=O)Nc4cc(OC)c(OC)cc43)cc2)cc1 | 189 to 191 °C |  |  | 
13 | CCCCCNC(=O)Oc1ccc(/C=C2/C(=O)Nc3cc(OC)c(OC)cc32)cc1 [A.3, n-Pentyl Carbamic Acid, (E)-4-(5,6-dimethoxy-2-oxo-1,2-dihydro-indol-3-ylidenemethyl)phenyl Ester] | 173 to 175 °C | 0.38 ± 0.16 µM | 1.78 µM | IC50 [3]: 2.2 ± 0.7 µM; Morphology a 24 h [4]: REVERSAL; minimal effective concentration [4]: ≥ 5 µM
14 | CCCCCCNC(=O)Oc1ccc(/C=C2/C(=O)Nc3cc(OC)c(OC)cc32)cc1 [A.4, n-Hexyl Carbamic Acid, (E)-4-(5,6-dimethoxy-2-oxo-1,2-dihydro-indol-3-ylidenemethyl)phenyl Ester] | 168 to 170 °C | 0.135 µM | 5.73 µM | 
15 | COc1cc2c(cc1OC)/C(=C\c1ccc(OC(=O)N3CCN(CCO)CC3)cc1)C(=O)N2 [B.3, 4-(2-Hydroxyethyl)piperazine-1-carboxylic Acid, (E)-4-(5,6-dimethoxy-2-oxo-1,2-dihydro-indol-3-ylidenemethyl)phenyl Ester] | 217 to 220 °C | 6.74 µM | 1.77 µM | IC50 [3]: 3.1 ± 1.3 µM; Morphology a 24 h [4]: REVERSAL
16 | COc1cc2c(cc1OC)/C(=C\c1ccc(OC(=O)N3CCN(CCOCCO)CC3)cc1)C(=O)N2 [B.6, 4-[2-(2-Hydroxyethoxy)ethyl]piperazine-1-carboxylic Acid (E)-4-(5,6-dimethoxy-2-oxo-1,2-dihydro-indol-3-ylidenemethyl)phenyl Ester] |  | 7.47 µM | 6.65 µM | IC50 [3]: 5.6 ± 1.8 µM; Morphology a 24 h [4]: REVERSAL; minimal effective concentration [4]: ≥ 10 µM
17 | COc1cc2c(cc1OC)/C(=C\c1ccc(OC(=O)N3CCN(c4ccccc4)CC3)cc1)C(=O)N2 [B.7, 4-Phenylpiperazine-1-carboxylic Acid, (E)-4-(5,6-dimethoxy-2-oxo-1,2-dihydro-indol-3-ylidenemethyl)phenyl Ester] | > 260 °C | 2.78 µM | 3.23 µM | 
18 | COc1cc2c(cc1OC)/C(=C\c1ccc(OCCO)cc1)C(=O)N2 [D.1, (E) 3-[4-(2-hydroxyetoxy)benzylidene]-5,6-dimethoxy-1,3-dihydro-indol-2-one] |  | 3.63 µM | 1.12 µM | IC50 [3]: 4.3 ± 0.6 µM; Morphology a 24 h [4]: REVERSAL; minimal effective concentration [4]: ≥ 10 µM
19 | COc1cc2c(cc1OC)/C(=C\c1ccc(OC(=O)Nc3ccccc3)cc1)C(=O)N2 [Example A.1, Phenylcarbamic Acid, (E)-4-(5,6-dimethoxy-2-oxo-1,2-dihydro-indol-3-ylidenemethyl)phenyl Ester] | 201 to 203 °C | 1.66 µM | 8.39 µM | 
20 | CCOP(=O)(OCC)Oc1ccc(/C=C2/C(=O)Nc3cc(OC)c(OC)cc32)cc1 [Example C.2, (E)-4-(5,6-dimethoxy-2-oxo-1,2-dihydro-indol-3-ylidenemethyl)phenyl Diethyl Phosphate] |  |  |  | IC50 [1]: 5.09 µM; IC50 [2]: 63.5 µM; IC50 [3]: 1.7 ± 0.1 µM; Morphology a 24 h [4]: REVERSAL; minimal effective concentration [4]: ≥ 5 µM
21 | COc1cc2c(cc1OC)/C(=C\c1ccc(OC(=O)CCCCNC(=O)OC(C)(C)C)cc1)C(=O)N2 [Example F.2, 5-tert-Butoxycarbonylamino-pentanoic Acid, (E)-4-(5,6-dimethoxy-2-oxo-1,2-dihydro-indol-3-ylidenemethyl)phenyl Ester] | 101 to 103 °C | 1.2 µM | 1.37 µM | 
22 | COc1ccc(OC(=O)Oc2ccc(/C=C3\C(=O)Nc4cc(OC)c(OC)cc43)cc2)cc1 [Example H.2, (Z)-4-(5,6-dimethoxy-2-oxo-1,2-dihydro-indol-3-ylidenemethyl)phenyl, 4-methoxyphenyl Carbonate] |  | 0.28 µM | 4.84 µM | 
23 | COc1cc2c(cc1OC)/C(=C/c1ccc(OC(=O)CCCCNC(=O)OC(C)(C)C)cc1)C(=O)N2 [G.2, 5-tert-Butoxycarbonylamino-pentanoic Acid, (Z)-4-(5,6-dimethoxy-2-oxo-1,2-dihydro-indol-3-ylidenemethyl)phenyl Ester] |  | 0.77 µM | 3.45 µM | 
24 | COc1cc2c(cc1OC)/C(=C/c1ccc(OC(=O)c3cccn3C)cc1)C(=O)N2 [G.3, 1-Methyl-1H-pyrrole-2-carboxylic Acid, (Z)-4-(5,6-dimethoxy-2-oxo-1,2-dihydro-indol-3-ylidenemethyl)phenyl Ester] |  | 2.65 µM | 6.38 µM | 
